In patent publication US20230365589A1, “NOVEL AMINE DERIVATIVES” (Sumitomo Pharma Co., Ltd., priority 2020, published 2023):
Read-outs that look alike come from different tables or passages of the source.

Columns and labels:
Assay type in all cases: biochemical
[1] = target: T1, DYRK1A (Homo sapiens, UniProt Q13627); assay: Inhibition test on activity of DYRK family, mobility shift assay (MSA): DYRK1A
T1 construct: purchased Carna Biosciences, Inc. 04-130
Method in brief: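 IC50 derived by regressing inhibition rate on log compound concentration, using P/(P+S) peak ratios from electrophoretic separation. DYRK1A enzyme solution 0.2 ng/μL, substrate mix with 4 μM FITC-DYRKtide and 100 μM ATP, pH 7.5 HEPES; reaction run 1 h at room temperature.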

[2] = target: T2, DYRK2 (Homo sapiens, UniProt Q92630); assay: Inhibition test on activity of DYRK family, mobility shift assay (MSA): DYRK2
T2 construct: purchased Carna Biosciences, Inc. 04-132
T2 sequence (Q92630 74-601 limits assumed): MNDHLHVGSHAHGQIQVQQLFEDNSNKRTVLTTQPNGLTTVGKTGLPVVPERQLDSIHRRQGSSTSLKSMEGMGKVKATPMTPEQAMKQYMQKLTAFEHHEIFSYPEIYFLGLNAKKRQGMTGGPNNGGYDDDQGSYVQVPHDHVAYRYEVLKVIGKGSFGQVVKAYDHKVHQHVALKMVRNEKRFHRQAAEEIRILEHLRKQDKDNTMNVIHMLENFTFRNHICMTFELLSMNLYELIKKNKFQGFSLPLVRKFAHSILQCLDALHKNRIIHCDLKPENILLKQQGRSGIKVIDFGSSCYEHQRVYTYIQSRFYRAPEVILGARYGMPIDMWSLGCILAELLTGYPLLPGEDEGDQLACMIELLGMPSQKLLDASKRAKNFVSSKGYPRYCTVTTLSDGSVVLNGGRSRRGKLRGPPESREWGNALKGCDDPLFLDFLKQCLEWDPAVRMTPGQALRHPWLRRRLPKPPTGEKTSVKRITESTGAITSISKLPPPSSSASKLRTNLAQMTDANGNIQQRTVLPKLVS
Method in brief: (§1)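 Reactions ran 1 h at room temperature in HEPES buffer pH 7.5 with FITC-DYRKtide as substrate. ATP in the substrate mix was 100 µM for DYRK1A, 200 µM for DYRK1B, 40 µM for DYRK2 and 20 µM for DYRK3. Phosphorylated and unphosphorylated peptide were separated on a LabChip, and IC50 was regressed on log dose.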

[3] = target: T3, DYRK3 (Homo sapiens, UniProt O43781); assay: Inhibition test on activity of DYRK family, mobility shift assay (MSA): DYRK3
T3 construct: purchased Carna Biosciences, Inc. 04-133
T3 sequence (O43781 1-568 isoform O43781-2): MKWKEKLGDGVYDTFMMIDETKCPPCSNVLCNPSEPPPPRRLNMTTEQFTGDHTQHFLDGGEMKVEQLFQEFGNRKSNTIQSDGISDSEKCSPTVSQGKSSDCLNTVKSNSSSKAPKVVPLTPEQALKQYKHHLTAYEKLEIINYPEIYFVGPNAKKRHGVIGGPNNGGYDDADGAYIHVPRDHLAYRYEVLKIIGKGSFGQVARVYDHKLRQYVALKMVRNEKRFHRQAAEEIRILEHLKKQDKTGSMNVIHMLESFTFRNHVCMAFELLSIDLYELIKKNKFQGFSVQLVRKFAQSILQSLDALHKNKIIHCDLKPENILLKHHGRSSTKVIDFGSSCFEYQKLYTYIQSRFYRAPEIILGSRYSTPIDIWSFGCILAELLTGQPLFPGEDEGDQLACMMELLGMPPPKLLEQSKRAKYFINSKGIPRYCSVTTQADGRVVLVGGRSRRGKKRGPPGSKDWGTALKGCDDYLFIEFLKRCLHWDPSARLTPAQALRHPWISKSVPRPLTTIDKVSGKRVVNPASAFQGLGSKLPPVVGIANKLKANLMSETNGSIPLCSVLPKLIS
Method in brief: as §1

[4] = read-out: Inhibitory activity DYRK 1A
[5] = read-out: Inhibitory activity DYRK 2
[6] = read-out: Inhibitory activity DYRK 3
[7] = MSA, FITC-labeled DYRKtide peptide, ATP 100 μM, read-out: Inhibitory activity DYRK 1A (IC50 class)
[8] = MSA, FITC-labeled DYRKtide peptide, ATP 40 μM, read-out: Inhibitory activity DYRK 2 (IC50 class)
[9] = MSA, FITC-labeled DYRKtide peptide, ATP 20 μM, read-out: Inhibitory activity DYRK 3 (IC50 class)

Structure (SMILES) | IC50 [1, 4] [nM] | IC50 [2, 5] [nM] | IC50 [3, 6] [nM] | IC50 [1, 7] [nM] | IC50 [2, 8] [nM] | IC50 [3, 9] [nM]
C#CCN1C[C@@H]2NC(=O)N(c3nc4c5c(ccc4s3)OCC5)[C@@H]2C1 (racemic) [Example 102, rac-(3aR,6aS)-1-(7,8-dihydrofuro[3,2-e][1,3]benzothiazol-2-yl)-5-(2-propyn-1-yl)hexahydropyrrolo[3,4-d]imidazol-2(1H)-one] | 10 to 100 | ≥ 1000 | 100 to 1000 |  |  | 
O=C1N[C@H]2CN(C3CC3)CC[C@H]2N1c1nc2c3c(ccc2s1)OCCO3 [Example 88] |  |  |  | 100 to 1000 | ≥ 1000 | ≥ 1000
O=C1C[C@@H]2[C@H](CO1)NC(=O)N2c1nc2c3c(ccc2s1)OCC3 [Example 152] |  |  |  | < 10 | 10 to 100 | 10 to 100
O=C1NC2CCN(CCO)CC2N1c1nc2c3c(ccc2s1)OCC3 (stereo not drawn) [Example 13] |  |  |  | 10 to 100 | ≥ 1000 | ≥ 1000
O=C1N[C@@H]2CCN(C3CC3)C[C@@H]2N1c1nc2c3c(ccc2s1)OCC3 (single isomer, unassigned) [Example 109] | ≥ 1000 | ≥ 1000 | ≥ 1000 |  |  | 
O=C1N[C@H]2CCOC[C@H]2N1c1nc2c3c(ccc2s1)OCC3 (racemic) [Example 120, rac-(3aR,7aR)-3-(7,8-dihydrofuro[3,2-e][1,3]benzothiazol-2-yl)hexahydropyrano[3,4-d]imidazol-2(3H)-one] | 10 to 100 | 100 to 1000 | 100 to 1000 |  |  | 
C[C@H]1[C@H]2[C@@H](CCN1C)NC(=O)N2c1nc2c3c(ccc2s1)OCC3 [Example 95] | 100 to 1000 | 100 to 1000 | 100 to 1000 |  |  | 
CN1CC[C@@H]2NC(=O)N(c3nc4c5c(ccc4s3)OCO5)[C@@H]2C1 (racemic) [Example 79, rac-(3aR,7aS)-3-(2H-[1,3]dioxolo[4,5-e][1,3]benzothiazol-7-yl)-5-methyloctahydro-2H-imidazo[4,5-c]pyridin-2-one] |  |  |  | 10 to 100 | ≥ 1000 | ≥ 1000
O=C1N[C@@H]2C[C@H](CO)OC[C@@H]2N1c1nc2c3c(ccc2s1)OCC3 [Example 145] |  |  |  | 100 to 1000 | ≥ 1000 | ≥ 1000
C[C@@H]1NC(=O)N(c2nc3c4c(ccc3s2)OCC4)[C@@H]1CN1CC(F)(F)C1 [Example 116, (4S,5R)-5-[(3,3-difluoroazetidin-1-yl)methyl]-1-(7,8-dihydrofuro[3,2-e][1,3]benzothiazol-2-yl)-4-methylimidazolidin-2-one] | 10 to 100 | ≥ 1000 | ≥ 1000 |  |  | 
N#C[C@H]1C[C@H]2NC(=O)N(c3nc4c5c(ccc4s3)OCO5)[C@H]2CO1 [Example 132] | ≥ 1000 | ≥ 1000 | ≥ 1000 |  |  | 
O=C1NC2CCNCC2N1c1nc2c3c(ccc2s1)OCCO3 (stereo not drawn) [Example 29] |  |  |  | 10 to 100 | ≥ 1000 | ≥ 1000
C#CCN1CCC[C@@H]2NC(=O)N(c3nc4c5c(ccc4s3)OCC5)[C@@H]2C1 (racemic) [Example 105, rac-(3aR,8aS)-3-(7,8-dihydrofuro[3,2-e][1,3]benzothiazol-2-yl)-5-(2-propyn-1-yl)octahydroimidazo[4,5-c]azepin-2(1H)-one] | 10 to 100 | ≥ 1000 | ≥ 1000 |  |  | 
O=C1N[C@H]2CCCNC[C@H]2N1c1nc2c3c(ccc2s1)OCO3 [Example 55] |  |  |  | 100 to 1000 | ≥ 1000 | 100 to 1000
C[C@H]1[C@@H]2[C@H](CCN1C)NC(=O)N2c1nc2c3c(ccc2s1)OCC3 [Example 94] | 100 to 1000 | ≥ 1000 | ≥ 1000 |  |  | 
O=C1N[C@H]2CO[C@@H](CO)C[C@H]2N1c1nc2c3c(ccc2s1)OCO3 [Example 147, (3aR,6R,7aR)-1-(2H-[1,3]dioxolo[4,5-e][1,3]benzothiazol-7-yl)-6-(hydroxymethyl)hexahydropyrano[3,4-d]imidazol-2(3H)-one] |  |  |  | < 10 | ≥ 1000 | 100 to 1000
